Measurements taken from patent USRE48253E1, “Methotrexate adjuvants to reduce toxicity and methods for using the same” (Tosk, Inc., priority 2008, dated 2020).
Entries after “also recorded” stand apart in the source; their conditions may differ. Where two headings read alike, the source gives them in different places.

Columns and labels:
AS283 cells = assay: Cell Culture Study II: MTX cytotoxicity, CellTiter-Glo; format: cell-based, human; conditions: TK-112690 1, 10, 100 μM with MTX 0.01-100 μM, 72 hours
Protocol: In this study, AS283 cells were grown in RPMI-1640 supplemented with L-glutamine dipeptide, sodium pyruvate, HEPES, and 10% FBS. AS283 cells were used to seed three 96-well plates with 10,000 cells/well in a total volume of 50 μL. Medium alone wells were seeded 100 μL medium. Plates were incubated overnight. The following day, 25 μL of the TK-112690 and MTX stock solutions were added to the appropriate wells. TK-112690 was added first, followed by MTX in all wells. 25 μL of vehicle was added to TK-112690 alone wells. 25 μL of vehicle and 25 μL medium were added to vehicle control wells, and 50 μL medium was added to cell control wells. Cell viability was measured using CellTiter-Glo and DOX (10 μM) was used as a reference standard. The plates were incubated at 37° C., 5% CO2 for 72 hours then removed from the incubator and placed on the bench at room temperature for 30 min. The plates were not stacked or shaken. […] Luminescence was recorded on TriLux. […]
AS283 cells were grown in RPMI-1640 supplemented with L-glutamine dipeptide, sodium pyruvate, HEPES, and 10% FBS. […] Cell viability was measured using CellTiter-Glo and DOX (10 μM) was used as a reference standard.
The plates were incubated at 37° C., 5% CO2 for 72 hours then removed from the incubator and placed on the bench at room temperature for 30 min. […] Luminescence was recorded on TriLux.

[1] = molecular target: mouse small intestinal UPase enzyme (Mus musculus, UniProt P52624); assay: UPase inhibition in mouse small intestinal tissue homogenate (HPLC of uracil); format: biochemical
mouse small intestinal UPase enzyme, sequence (P52624 whole entry, looked up): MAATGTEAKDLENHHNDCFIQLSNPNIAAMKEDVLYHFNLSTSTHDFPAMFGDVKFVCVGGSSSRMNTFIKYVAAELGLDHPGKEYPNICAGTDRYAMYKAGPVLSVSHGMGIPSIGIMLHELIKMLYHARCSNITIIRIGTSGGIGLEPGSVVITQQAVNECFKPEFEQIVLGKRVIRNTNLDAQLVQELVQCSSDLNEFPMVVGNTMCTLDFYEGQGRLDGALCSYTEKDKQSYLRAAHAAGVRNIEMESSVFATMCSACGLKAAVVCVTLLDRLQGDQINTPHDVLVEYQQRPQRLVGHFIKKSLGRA
Protocol: A range of TK-112690 doses were studied for the their ability to prevent metabolic breakdown of uridine through the in vitro inhibition of mouse and human small intestinal UPase enzyme. UPase activity was determined by HPLC analysis using UV detection of uracil concentration (UPase catabolizes uridine into uracil and ribose-1-phosphate). The UPase enzyme material was prepared from homogenized mouse and human being small intestinal tissue. TK-112690 was dissolved in water (50 mg/ml) and analyzed for UPase inhibition in aqueous solution containing 5 mM uridine, 0.01 M Tris, 0.01 M phosphate, 1 mM EDTA, and 1 mM DTT. Reactions were performed at 37° C. at pH of 7.3.
The aim of this study was to evaluate TK-112690 […] as an inhibitor of uridine phosphorylase (UPase) enzyme activity. The range of TK-112690 doses studied for ability to prevent metabolic breakdown of uridine, through the in vitro inhibition of mouse and human small intestinal UPase enzyme, was 0, 0.1, 0.5, 1, 5, 10, 50, 100, 500, 1000, 5000 and 10000 μM). Detection of UPase activity was determined by HPLC analysis using UV detection of uracil concentration (UPase catabolizes uridine into uracil and ribose-1-phosphate).
The UPase enzyme material was prepared from homogenized mouse and human being small intestinal tissue. TK-112690 was dissolved in water (50 mg/ml) and analyzed for UPase inhibition in aqueous solution containing 5 mM uridine, 0.01 M Tris, 0.01 M phosphate, 1 mM EDTA, and 1 mM DTT. Reactions were performed at 37° C. at pH of 7.3.
TK-11260 inhibition of mouse and human UPase was analyzed by reverse phase HPLC using UV detection. HPLC analysis was performed at ambient temperature with a Water 2695 Alliance system equipped with a C18 ECONOSIL 5 U ALLtech column. 20 μl of UPase reaction samples were auto-injected onto column. Mobile phase consisted of water eluting for first 2.5 ml and acetonitrile gradient to 100% in 12.5 ml (flow rate 0.5 ml/min). The outlet fluent was monitored by UV absorption in the range of 240-320 nm. UPase enzymatic activity was based on the AUC of the uracil peaks.

## Cc1cn2c(nc1=O)O[C@H]1[C@H](O)[C@@H](CO)O[C@H]12 [TK-112690, 2,2′-anhydro-5-methyluridine]
AS283 cells
  effect on antiproliferative activity (cytotoxicity) of MTX: did not diminish the cytotoxicity of MTX; also recorded: not altered
[1]; 5 mM uridine, 37° C., pH 7.3, read-out: IC50, mouse small intestinal (murine) UPase
  IC50: 12.5 µM
[1]; Table 3, murine UPase, test method of Experiment IX, read-out: UPase IC50
  IC50: < 100 µM
